From patent US3973021A, “2-[2-(5-Nitro-2-furyl)vinyl]-4-(phydroxyanilino)quinazoline as a bactericide” (Diamond Shamrock Corporation, priority 1975, dated 1976)

Legend:
Type in all cases: in vivo, broiler cross chicks
[1] = Example X: 4 week chick feeding test, 25 g/T; settings: 25 g/T; Table IV
Text: (§1) This example compares growth promotion activity of the product of Example I with other growth promotants at a concentration of 25 g/T in the Basal Ration described in Example VII. The other growth promotants include the product described in Example I of U.S. Pat. No. 3,542,784 -- Burch and quinoxaline-1,4-dioxide. Day old broiler cross chicks were weight equalized into groups of 8 chicks each, and four replicates of 8 chicks each were fed the experimental rations over a 4 week period.

[2] = Example XI: 4 week chick feeding test, five replicates; settings: Table V
Text: as §1
The growth promotion tests described in Example X were repeated with the exception that fives replicates of 8 chicks each were fed the formulations described in Table V for four weeks.

[3] = Example VII: 4 week chick feeding test, weight gain and feed efficiency; settings: analysis of variance; over Basal Ration + Bacitracin
Text: One hundred twenty day-old broiler cross chicks were weight equalized into 15 groups of 8 chicks each and placed in battery brooders. The 40 chick treatment groups (5 replicates) were fed the one of the three rations described below for a four week period. weekly measurements of body weights and feed consumption were made by replicate, and these measurements used to calculate weight gain and feed efficiency.
The commercial type broiler starter basal ration which was used in this study was designated as the Basal Ration, and had the following composition:
The preceding basal ration was mixed with bacitracin at a level of 4 g/T as the only growth stimulant to simulate commercial practice. This mixture was designated as the Basal Ration + Bacitracin (4 g/T) and constituted the negative control in this study.
A second ration was prepared by fortifying the Basal Ration + bacitracin described above with the Product from Example I above at a level of 200 g/T, and was designated as Basal Ration + Bacitracin + Product of Example I (200 g/T). A third ration was prepared by fortifying the Basal Ration + bacitracin described above with chlortetracycline (CTC) at a level of 200 g/T, and was designated as Basal Ration + Bacitracin + Chlortetracycline (200 g/T).
The term "growth promotion" is used herein to describe the beneficial effect of a compound in eliciting a more rapid of weight gain when compared to the weight gain of control animals not fed the compound. "Feed efficiency" is a term regularly used in animal husbandry and is a measure of the pounds of feed required to produce a pound of gain in the weight of the animal. A lower mathmatical value for feed efficiency reflects improved performance.

Compound: [O-][n+]1cc[n+]([O-])c2ccccc21 [Quinoxaline-1,4-dioxide, quinoxaline-1,4-dioxide]
- growth rate and feed efficiency response (in words) [1]: did not have any apparent effect
- feed efficiency (in words) [2]: improvement in feed efficiency
- growth rate (in words) [2]: questionable effect on growth

Compound: CN(C)[C@@H]1C(O)=C(C(N)=O)C(=O)[C@@]2(O)C(O)=C3C(=O)c4c(O)ccc(Cl)c4[C@@](C)(O)[C@H]3C[C@@H]12 [Chlortetracycline, reference compound]
- statistical significance of improved feed efficiencies [3]: significant at the 99.9% level of probability
- statistical significance of improved weight gains [3]: significant at the 99.5% level of probability
- feed efficiency (in words) [2]: moderate improvements in feed efficiencies
- growth rate (in words) [2]: slight improvements in growth rates
